Earlier results in paper PMC9306982 (Journal of Food and Drug Analysis, 2019).

How the values were obtained:
xanthine oxidase = details: for inhibitory activity against xanthine oxidase (in words): isolates from aerial part of Hyptis rhomboids
[1] = compared with caffeoylquinic acids
[2] = test system: potassium oxonate-treated rat; details: oral administration

Molecule: O=C(O)/C=C/c1ccc(O)c(O)c1 [Compound 11, caffeic acid]
- xanthine oxidase inhibitory activity (in words) (xanthine oxidase): moderate
- bioavailability (in words) [1]: better

Molecule: COC(=O)C1(O)CC(O)C(OC(=O)C=Cc2ccc(O)c(O)c2)C(OC(=O)C=Cc2ccc(O)c(O)c2)C1 (centres unmarked) [methyl 4,5-dicaffeoylquinate]
- hypouricemic effect (in words) [2]: good

Molecule: epihyprhombin B
- inhibitory activity against xanthine oxidase (in words) (xanthine oxidase): good

Molecule: O=C(/C=C/c1ccc(O)c(O)c1)O/C=C\c1ccc(O)c(O)c1 [netpetoidin B]
- inhibitory activity against xanthine oxidase (in words) (xanthine oxidase): good
